Measured values as given in ChEMBL document CHEMBL5214979 (J Med Chem, 2022).

Tests used:
[1] = Upregulation of BCAA expression in human MDA-MB-231 cells; format: functional, cell-based
[2] = Apparent permeability of the compound from apical to basolateral side in human Caco-2 cells incubated for 2 hrs by LC-MS/MS analysis; settings: caco-2, 2 h
[3] = target: T1, Branched-chain-amino-acid aminotransferase, mitochondrial (Homo sapiens, UniProt O15382); assay: Inhibition of human recombinant BCAT2 using leucine and alpha-KG as substrate in presence of NADH by fluorescence assay
T1 sequence (O15382 whole entry): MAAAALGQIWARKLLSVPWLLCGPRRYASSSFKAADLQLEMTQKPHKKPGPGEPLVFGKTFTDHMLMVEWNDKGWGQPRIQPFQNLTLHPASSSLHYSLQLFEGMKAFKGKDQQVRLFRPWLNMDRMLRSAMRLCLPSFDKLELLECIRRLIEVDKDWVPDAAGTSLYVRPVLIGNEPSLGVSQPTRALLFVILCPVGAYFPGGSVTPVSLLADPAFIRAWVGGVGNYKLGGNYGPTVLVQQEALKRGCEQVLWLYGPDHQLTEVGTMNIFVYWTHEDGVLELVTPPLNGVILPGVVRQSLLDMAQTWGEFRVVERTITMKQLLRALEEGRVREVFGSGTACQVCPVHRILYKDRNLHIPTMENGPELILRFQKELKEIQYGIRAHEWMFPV

[4] = target: T2, Branched-chain-amino-acid aminotransferase, cytosolic (Homo sapiens, UniProt P54687); assay: biochemical
T2 sequence (P54687 whole entry): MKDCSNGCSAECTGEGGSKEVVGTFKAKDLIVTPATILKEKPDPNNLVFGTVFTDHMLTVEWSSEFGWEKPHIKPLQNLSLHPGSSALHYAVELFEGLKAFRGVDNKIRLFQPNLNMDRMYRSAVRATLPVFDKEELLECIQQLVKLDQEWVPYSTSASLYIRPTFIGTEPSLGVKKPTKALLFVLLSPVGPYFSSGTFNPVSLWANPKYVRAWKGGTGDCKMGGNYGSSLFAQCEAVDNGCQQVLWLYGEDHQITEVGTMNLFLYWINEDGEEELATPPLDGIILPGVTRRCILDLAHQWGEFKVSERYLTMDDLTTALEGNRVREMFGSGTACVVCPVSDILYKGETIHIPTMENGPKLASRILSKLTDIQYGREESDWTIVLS
Description: Inhibition of N-terminal his-tagged human recombinant BCAT1 expressed in Escherichia coli BL21(DE3) cells using leucine and alpha-KG as substrate in presence of NADH by fluorescence assay

[5] = Metabolic stability in human liver microsomes assessed as blood clearance incubated upto 60 mins by LC-MS/MS analysis; format: ADME, Microsome
[6] = Metabolic stability in Wistar Han rat hepatocyte assessed as blood clearance at 1 uM incubated upto 90 mins by LC-MS/MS analysis; format: ADME, cell-based; settings: hepatocytes
[7] = Metabolic stability in human liver microsomes assessed as maximal oral bioavailability incubated upto 60 mins by LC-MS/MS analysis; format: ADME, Microsome
[8] = Apparent permeability of the compound from basolateral to apical side in human Caco-2 cells incubated for 2 hrs by LC-MS/MS analysis; format: ADME, cell-based; settings: caco-2, 2 h
[9] = Lipophilicity, logD of compound at pH 7.5; format: physicochemical; settings: buffer
[10] = Aqueous solubility of compound in PBS buffer at pH 6.5 incubated for 24 hrs by HPLC-UV analysis; format: physicochemical; settings: pH 6.5, 24 h

Row | Structure (SMILES) | Papp [2] | also measured
1 | CCCc1cc(=O)n2nc(NCc3c(F)cc(Cl)cc3F)c(C#N)c2[nH]1 |  | IC50 [1]: 564 µM
2 | N#Cc1cc(F)c(-n2c(=O)cc(C(F)(F)F)[nH]c2=O)cc1Oc1ccccc1 |  | IC50 [3]: 13.4 µM
3 | COc1cc(OC)c(-n2c(=O)cc(C(F)(F)F)[nH]c2=O)cc1Cl |  | IC50 [3]: 20 µM; IC50 [4]: 3.3 µM
4 | COc1cc(Cl)c(Oc2ccccc2C)cc1-n1c(=O)cc(C(F)(F)F)[nH]c1=O | 19.9 ×10⁻⁶ cm/s | 
5 | COc1cc(C#N)c(Oc2ccccc2C)cc1-n1c(=O)cc(C(F)(F)F)[nH]c1=O | 2.3 ×10⁻⁶ cm/s | 
6 | Cc1ccccc1Oc1cc(-n2c(=O)cc(C(F)(F)F)[nH]c2=O)c(C)cc1C#N | 4.8 ×10⁻⁶ cm/s | 
7 | CNC(=O)c1ccn2c(-n3c(=O)cc(C(F)(F)F)[nH]c3=O)c(-c3ccccn3)nc2c1 |  | IC50 [4]: 0.85 µM
8 | Cc1ccccc1Oc1cc(-n2c(=O)cc(C(F)(F)F)[nH]c2=O)c(F)cc1C#N |  | IC50 [3]: 13.3 µM
9 | Cc1ccccc1Oc1cc(-n2c(=O)cc(C(F)(F)F)[nH]c2=O)c2ccccc2c1 [BAY-771] | 27.5 ×10⁻⁶ cm/s | CLhep predicted [5]: 13.2 mL/min/kg; CLhep predicted at […], 1 µM [6]: 41.7 mL/min/kg; Fh at 1 h [7]: 40%; Papp [8]: 17.1 ×10⁻⁶ cm/s; logD [9]: 2.2; solubility [10]: > 412 µg/mL

More lines, main results first:

Row | Papp [2] | Structure (SMILES) | also measured
10 | 32.9 ×10⁻⁶ cm/s | COc1cc(C#N)c(Oc2ccccc2C)cc1-n1c(=O)cc(C(F)(F)c2ccccc2)[nH]c1=O | 
11 | 3 ×10⁻⁶ cm/s | COc1cc(C#N)c(Oc2ccccc2C)cc1-n1c(=O)cc(C(F)(F)Cl)[nH]c1=O | 
12 | 2.9 ×10⁻⁶ cm/s | COc1cc(C#N)c(Oc2ccccc2C)cc1-n1c(=O)cc(S(C)(=O)=O)[nH]c1=O | 
13 | 3.3 ×10⁻⁶ cm/s | COc1cc(C#N)c(Oc2ccccc2C)cc1-n1c(=O)cc(C(F)(F)C(F)(F)F)[nH]c1=O | 
14 | 0.05 ×10⁻⁶ cm/s | COc1cc(C#N)c(Oc2ccccc2C)cc1-n1c(=O)cc(S(=O)(=O)c2ccccc2)[nH]c1=O | 
15 | 28.4 ×10⁻⁶ cm/s | COc1cc(C#N)c(Oc2ccccc2C)cc1-n1c(=O)cc(-c2ccccc2)[nH]c1=O | 
16 | 7.1 ×10⁻⁶ cm/s | COc1cc(C#N)c(Oc2ccccc2C)cc1-n1c(=O)cc(Br)[nH]c1=O | 
17 | 1.1 ×10⁻⁶ cm/s | COc1cc(C#N)c(Oc2ccccc2C)cc1-n1c(=O)cc(C(N)=O)[nH]c1=O | 
